Measured values: US20160375006A1, “USES OF PARALOG-SELECTIVE INHIBITORS OF GSK3 KINASES” (priority 2012, published 2016)

Columns and labels:
FLT3 = FLT3 (Homo sapiens, UniProt P36888)
HGK = HGK (Homo sapiens, UniProt O95819)
Protocol: (§1) A solution of IMAP binding reagent (IMAP Screening Express kit; Molecular Devices) (60 μL) was added to each well and incubated for 30 minutes.
(§2) A solution of termination buffer (QuickScout Screening assist MSA; Carna Biosciences) (60 μL) was added to each well. The entire reaction mixture was then applied to a LabChip3000 system (Caliper Life Science) and the product and substrate peptide peaks were separated and quantified.
(§3) The assay utilized was identical to that of the single point inhibitory activity determination (MSA) but run in dose response. […] A solution of termination buffer (QuickScout Screening assist MSA; Carna Biosciences) (60 μL) was added to each well. The entire reaction mixture was then applied to a LabChip3000 system (Caliper Life Science) and the product and substrate peptide peaks were separated and quantified.

MST3 = MST3 (Homo sapiens, UniProt Q9Y6E0)
Protocol: (§4) This was completed utilizing one of two assays depending on the kinase being examined.
as §1, §2, §3

COT_Cascade = COT_Cascade (Homo sapiens, UniProt P41279)
Protocol: as §4, §1, §2, §3

RAF1_Cascade = RAF1_Cascade (Homo sapiens, UniProt P04049)
Protocol: as §4, §1, §2

EPHA6 = EPHA6 (Homo sapiens, UniProt Q9UF33)
Protocol: as §4, §1, §2

TRKB = TRKB (Homo sapiens, UniProt Q16620)
Protocol: as §4, §1, §2, §3

PKACα = PKACα (Homo sapiens, UniProt P17612)
Protocol: as §4, §1, §2, §3

YES(T348I) = YES(T348I) (Homo sapiens, UniProt P07947, T348I)
Protocol: as §4, §1, §2, §3

TRKA = TRKA (Homo sapiens, UniProt P04629)
Protocol: as §4, §1, §2, §3

Erk2 = Erk2 (Homo sapiens, UniProt P28482)
Erk2, sequence (P28482 whole entry): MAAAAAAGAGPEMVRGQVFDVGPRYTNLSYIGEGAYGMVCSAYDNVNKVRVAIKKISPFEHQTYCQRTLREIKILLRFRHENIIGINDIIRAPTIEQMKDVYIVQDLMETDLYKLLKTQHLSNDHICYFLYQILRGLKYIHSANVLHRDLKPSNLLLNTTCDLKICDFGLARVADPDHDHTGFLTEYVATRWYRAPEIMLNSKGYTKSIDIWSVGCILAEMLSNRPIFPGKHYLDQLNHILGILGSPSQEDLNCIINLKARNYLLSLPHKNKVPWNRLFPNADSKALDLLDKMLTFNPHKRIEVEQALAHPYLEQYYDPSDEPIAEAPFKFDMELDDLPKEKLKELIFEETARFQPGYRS
Protocol: as §4, §1, §2

PIM2 = PIM2 (Homo sapiens, UniProt Q9P1W9)
PIM2, sequence (Q9P1W9 whole entry): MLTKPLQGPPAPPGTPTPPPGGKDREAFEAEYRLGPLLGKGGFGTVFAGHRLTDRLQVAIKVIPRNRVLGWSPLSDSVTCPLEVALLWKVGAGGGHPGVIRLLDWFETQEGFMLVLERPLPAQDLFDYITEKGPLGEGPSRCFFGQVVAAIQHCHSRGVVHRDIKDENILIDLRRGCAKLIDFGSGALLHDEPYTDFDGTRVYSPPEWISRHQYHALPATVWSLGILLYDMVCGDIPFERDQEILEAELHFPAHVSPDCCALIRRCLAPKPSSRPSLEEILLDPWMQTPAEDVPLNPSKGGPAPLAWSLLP
Protocol: as §4, §1, §2, §3

PASK = PASK (Homo sapiens, UniProt Q96RG2)
Protocol: as §4, §1, §2, §3

IKKα = IKKα (Homo sapiens, UniProt O15111)
Protocol: as §4, §1, §2, §3

KIT = KIT (Homo sapiens, UniProt P10721)
Protocol: as §4, §1, §2

MUSK = MUSK (Homo sapiens, UniProt O15146)
Protocol: as §4, §1, §2, §3

PKCζ = PKCζ (Homo sapiens, UniProt Q05513)
Protocol: as §4, §1, §2, §3

INSR = INSR (Homo sapiens, UniProt P06213)
CLK3 = CLK3 (Homo sapiens, UniProt P49761)
IGF1R = IGF1R (Homo sapiens, UniProt P08069)
Protocol: as §4, §1, §2, §3

EPHA2 = EPHA2 (Homo sapiens, UniProt P29317)
Protocol: as §4, §1, §2, §3

FGFR3(K650M) = FGFR3(K650M) (Homo sapiens, UniProt P22607, K650M)
FGFR3(K650M), sequence (P22607 23-806 K650M): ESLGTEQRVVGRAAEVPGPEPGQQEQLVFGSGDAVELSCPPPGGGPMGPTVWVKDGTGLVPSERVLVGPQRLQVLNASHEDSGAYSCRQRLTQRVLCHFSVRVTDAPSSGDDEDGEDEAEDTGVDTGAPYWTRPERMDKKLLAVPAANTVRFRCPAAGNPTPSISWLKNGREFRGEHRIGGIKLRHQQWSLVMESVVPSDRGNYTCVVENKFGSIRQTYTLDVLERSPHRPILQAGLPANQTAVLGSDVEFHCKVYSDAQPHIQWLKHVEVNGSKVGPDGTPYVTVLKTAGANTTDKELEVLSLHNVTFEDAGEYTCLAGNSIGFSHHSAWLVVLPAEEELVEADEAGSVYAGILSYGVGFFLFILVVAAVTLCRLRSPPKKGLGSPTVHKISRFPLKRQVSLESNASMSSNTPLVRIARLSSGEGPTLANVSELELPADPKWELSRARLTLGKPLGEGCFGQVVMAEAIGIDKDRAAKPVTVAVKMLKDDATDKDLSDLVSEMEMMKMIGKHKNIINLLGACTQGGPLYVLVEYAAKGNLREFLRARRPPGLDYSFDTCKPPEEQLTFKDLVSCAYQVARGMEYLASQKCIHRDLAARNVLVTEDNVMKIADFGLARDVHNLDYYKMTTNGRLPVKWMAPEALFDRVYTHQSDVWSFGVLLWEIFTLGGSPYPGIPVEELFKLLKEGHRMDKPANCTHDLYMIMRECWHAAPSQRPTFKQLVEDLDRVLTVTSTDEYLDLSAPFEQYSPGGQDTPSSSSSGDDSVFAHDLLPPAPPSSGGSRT
Protocol: as §1, §2, §3

RET(S891A) = RET(S891A) (Homo sapiens, UniProt P07949, S891A)
Protocol: as §4, §1, §2, §3

DYRK1A = DYRK1A (Homo sapiens, UniProt Q13627)
Protocol: as §4, §1, §2, §3

LTK = LTK (Homo sapiens, UniProt P29376)
Protocol: as §4, §1, §2, §3

WNK3 = WNK3 (Homo sapiens, UniProt Q9BYP7)
WNK3, sequence (Q9BYP7 whole entry): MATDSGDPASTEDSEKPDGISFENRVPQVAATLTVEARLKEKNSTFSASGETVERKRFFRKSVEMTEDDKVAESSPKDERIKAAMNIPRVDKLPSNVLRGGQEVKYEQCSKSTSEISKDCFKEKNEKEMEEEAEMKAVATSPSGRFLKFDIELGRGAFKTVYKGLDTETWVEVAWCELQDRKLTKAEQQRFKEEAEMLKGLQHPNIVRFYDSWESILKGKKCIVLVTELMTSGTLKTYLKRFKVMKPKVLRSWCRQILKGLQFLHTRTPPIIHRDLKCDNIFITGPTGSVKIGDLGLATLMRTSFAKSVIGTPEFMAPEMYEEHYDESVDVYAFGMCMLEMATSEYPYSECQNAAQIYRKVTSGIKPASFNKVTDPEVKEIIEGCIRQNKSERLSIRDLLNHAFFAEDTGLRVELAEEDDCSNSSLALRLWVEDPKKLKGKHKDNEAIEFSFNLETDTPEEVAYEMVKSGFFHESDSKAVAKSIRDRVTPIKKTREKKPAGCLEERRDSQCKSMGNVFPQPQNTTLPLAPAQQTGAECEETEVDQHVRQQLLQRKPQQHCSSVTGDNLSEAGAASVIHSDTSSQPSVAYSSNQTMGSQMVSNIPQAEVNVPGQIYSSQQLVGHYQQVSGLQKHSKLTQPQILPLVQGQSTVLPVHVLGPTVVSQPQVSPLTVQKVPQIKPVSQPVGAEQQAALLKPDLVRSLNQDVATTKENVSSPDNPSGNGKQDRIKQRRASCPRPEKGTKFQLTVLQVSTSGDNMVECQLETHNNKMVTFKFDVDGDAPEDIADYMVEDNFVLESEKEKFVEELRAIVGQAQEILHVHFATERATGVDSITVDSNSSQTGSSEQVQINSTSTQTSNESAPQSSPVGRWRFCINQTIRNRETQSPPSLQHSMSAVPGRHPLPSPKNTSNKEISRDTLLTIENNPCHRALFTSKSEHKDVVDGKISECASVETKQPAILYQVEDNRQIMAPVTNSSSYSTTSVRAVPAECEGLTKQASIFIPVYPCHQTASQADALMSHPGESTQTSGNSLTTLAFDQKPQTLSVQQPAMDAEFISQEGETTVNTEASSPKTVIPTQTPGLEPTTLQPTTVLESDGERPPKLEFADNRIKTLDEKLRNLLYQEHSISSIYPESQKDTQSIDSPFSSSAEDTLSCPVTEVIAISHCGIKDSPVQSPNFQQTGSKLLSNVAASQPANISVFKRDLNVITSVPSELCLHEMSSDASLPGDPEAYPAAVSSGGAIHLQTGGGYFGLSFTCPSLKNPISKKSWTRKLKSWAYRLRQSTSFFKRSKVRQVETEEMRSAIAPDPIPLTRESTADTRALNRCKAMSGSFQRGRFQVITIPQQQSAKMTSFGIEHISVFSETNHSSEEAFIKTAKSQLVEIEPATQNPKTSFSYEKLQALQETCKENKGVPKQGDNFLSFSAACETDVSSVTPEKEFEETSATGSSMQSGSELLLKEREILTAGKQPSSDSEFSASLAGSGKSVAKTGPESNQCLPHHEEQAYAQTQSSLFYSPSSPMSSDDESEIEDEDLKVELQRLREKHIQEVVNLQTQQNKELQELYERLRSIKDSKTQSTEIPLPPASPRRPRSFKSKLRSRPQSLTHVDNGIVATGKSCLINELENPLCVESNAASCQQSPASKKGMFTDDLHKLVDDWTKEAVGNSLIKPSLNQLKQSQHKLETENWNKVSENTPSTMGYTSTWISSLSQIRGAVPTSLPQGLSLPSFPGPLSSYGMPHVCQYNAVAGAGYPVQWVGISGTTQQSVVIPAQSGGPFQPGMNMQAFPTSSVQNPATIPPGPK
Protocol: as §4, §1, §2, §3

RON = RON (Homo sapiens, UniProt Q04912)
Protocol: as §4, §1, §2, §3

SPHK2 = SPHK2 (Homo sapiens, UniProt Q9NRA0)
Protocol: as §4, §1, §2, §3

ACK = ACK (Homo sapiens, UniProt Q07912)
Protocol: as §4, §1, §2, §3

AKT2 = AKT2 (Homo sapiens, UniProt P31751)
Protocol: as §4, §1, §2, §3

NDR1 = NDR1 (Homo sapiens, UniProt Q15208)
Protocol: as §4, §1, §2, §3

MNK1 = MNK1 (Homo sapiens, UniProt Q9BUB5)
Protocol: as §4, §1, §2, §3

DYRK1B = DYRK1B (Homo sapiens, UniProt Q9Y463)
Protocol: as §4, §1, §2, §3

CK2α2/β = CK2α2/β (Homo sapiens, UniProt P19784)
Protocol: as §4, §1, §2, §3

p70S6K = p70S6K (Homo sapiens, UniProt P23443)
p70S6K, sequence (P23443 whole entry): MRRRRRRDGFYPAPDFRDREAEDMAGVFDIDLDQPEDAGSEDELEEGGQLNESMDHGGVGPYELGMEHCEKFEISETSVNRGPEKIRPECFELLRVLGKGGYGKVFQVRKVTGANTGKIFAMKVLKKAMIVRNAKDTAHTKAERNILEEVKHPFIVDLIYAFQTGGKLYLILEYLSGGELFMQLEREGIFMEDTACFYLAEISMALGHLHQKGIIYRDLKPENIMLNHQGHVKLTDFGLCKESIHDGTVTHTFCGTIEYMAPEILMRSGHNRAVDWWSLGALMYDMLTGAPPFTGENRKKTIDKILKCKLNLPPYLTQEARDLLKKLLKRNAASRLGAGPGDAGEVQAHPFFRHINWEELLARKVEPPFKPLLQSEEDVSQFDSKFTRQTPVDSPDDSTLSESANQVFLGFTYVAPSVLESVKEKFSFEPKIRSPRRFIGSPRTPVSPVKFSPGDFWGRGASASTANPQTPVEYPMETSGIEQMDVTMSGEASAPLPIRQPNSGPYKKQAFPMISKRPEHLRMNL
Protocol: as §4, §1, §2, §3

AKT1 = AKT1 (Homo sapiens, UniProt P31749)
Protocol: as §4, §1, §2, §3

EPHB1 = EPHB1 (Homo sapiens, UniProt P54762)
Protocol: as §4, §1, §2, §3

FGFR3(K650E) = FGFR3(K650E) (Homo sapiens, UniProt P22607, K650E)
FGFR3(K650E), sequence (P22607 23-806 K650E): as the sequence (P22607 23-806 K650M) above, with M628E counted along it
Protocol: as §4, §1, §2, §3

PKD2 = PKD2 (Homo sapiens, UniProt Q9BZL6)
Protocol: as §4, §1, §2, §3

MAPKAPK2 = MAPKAPK2 (Homo sapiens, UniProt P49137)
Protocol: as §4, §1, §2, §3

TRKB, sequence (Q16620 32-822): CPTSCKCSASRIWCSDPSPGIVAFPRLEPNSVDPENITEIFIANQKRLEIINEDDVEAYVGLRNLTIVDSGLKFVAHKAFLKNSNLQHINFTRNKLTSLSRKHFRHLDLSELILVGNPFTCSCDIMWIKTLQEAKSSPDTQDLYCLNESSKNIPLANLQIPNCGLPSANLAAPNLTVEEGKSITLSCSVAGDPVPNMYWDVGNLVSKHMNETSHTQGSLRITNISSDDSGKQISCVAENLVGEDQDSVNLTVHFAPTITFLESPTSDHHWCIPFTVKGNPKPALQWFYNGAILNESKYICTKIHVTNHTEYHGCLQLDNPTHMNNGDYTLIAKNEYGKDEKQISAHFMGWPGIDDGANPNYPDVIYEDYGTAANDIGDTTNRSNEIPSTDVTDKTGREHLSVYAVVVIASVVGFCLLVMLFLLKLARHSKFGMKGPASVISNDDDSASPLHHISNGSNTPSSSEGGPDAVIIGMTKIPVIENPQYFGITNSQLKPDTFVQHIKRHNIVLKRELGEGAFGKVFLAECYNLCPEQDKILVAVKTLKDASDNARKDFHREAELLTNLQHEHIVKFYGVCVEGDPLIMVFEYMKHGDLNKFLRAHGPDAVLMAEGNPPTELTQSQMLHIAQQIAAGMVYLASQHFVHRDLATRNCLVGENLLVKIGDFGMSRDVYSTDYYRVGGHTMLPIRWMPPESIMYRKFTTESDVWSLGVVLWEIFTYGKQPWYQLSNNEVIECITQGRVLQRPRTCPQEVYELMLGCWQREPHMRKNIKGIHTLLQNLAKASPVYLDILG
MST3, sequence (Q9Y6E0 whole entry): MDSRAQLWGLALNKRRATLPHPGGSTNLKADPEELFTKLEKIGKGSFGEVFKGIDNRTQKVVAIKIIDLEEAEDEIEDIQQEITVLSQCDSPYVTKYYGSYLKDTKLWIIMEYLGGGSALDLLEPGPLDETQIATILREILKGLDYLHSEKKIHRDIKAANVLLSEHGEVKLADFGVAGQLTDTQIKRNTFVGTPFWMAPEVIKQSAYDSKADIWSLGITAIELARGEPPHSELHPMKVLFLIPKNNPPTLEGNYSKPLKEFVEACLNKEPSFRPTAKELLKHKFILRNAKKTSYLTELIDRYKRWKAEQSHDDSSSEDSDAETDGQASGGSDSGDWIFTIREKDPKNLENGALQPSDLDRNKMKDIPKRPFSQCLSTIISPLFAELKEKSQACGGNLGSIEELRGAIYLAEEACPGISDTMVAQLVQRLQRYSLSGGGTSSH
Protocol for MAP3K2_Cascade: as §4, §1, §2, §3

## CC[C@@]1(c2ccccc2)C2=C(CC(C)(C)CC2=O)Nc2n[nH]cc21 [BRD0705]
FLT3
  % Inhibition at 10 μM: 25.0%
HGK
  % Inhibition at 10 μM: 14.9%
MST3
  % Inhibition at 10 μM: 11.7%
COT_Cascade
  % Inhibition at 10 μM: 11.2%
RAF1_Cascade
  % Inhibition at 10 μM: 7.5%
EPHA6
  % Inhibition at 10 μM: 7.4%
TRKB
  % Inhibition at 10 μM: 4.5%
PKACα
  % Inhibition at 10 μM: 3.4%
YES(T348I)
  % Inhibition at 10 μM: 3.3%
TRKA
  % Inhibition at 10 μM: 2.9%
Erk2
  % Inhibition at 10 μM: 1.6%
MAP3K2_Cascade
  % Inhibition at 10 μM: 1.0%
PIM2
  % Inhibition at 10 μM: 0.5%
PASK
  % Inhibition at 10 μM: 0.2%
IKKα
  % Inhibition at 10 μM: −0.2%
KIT
  % Inhibition at 10 μM: −0.3%
MUSK
  % Inhibition at 10 μM: −0.6%
PKCζ
  % Inhibition at 10 μM: −1.0%
INSR
  % Inhibition at 10 μM: −1.4%
CLK3
  % Inhibition at 10 μM: −1.5%
IGF1R
  % Inhibition at 10 μM: −2.5%
EPHA2
  % Inhibition at 10 μM: −2.6%
FGFR3(K650M)
  % Inhibition at 10 μM: −2.7%
RET(S891A)
  % Inhibition at 10 μM: −3.1%
DYRK1A
  % Inhibition at 10 μM: −3.1%
LTK
  % Inhibition at 10 μM: −3.6%
WNK3
  % Inhibition at 10 μM: −3.7%
RON
  % Inhibition at 10 μM: −3.8%
SPHK2
  % Inhibition at 10 μM: −3.8%
ACK
  % Inhibition at 10 μM: −4.5%
AKT2
  % Inhibition at 10 μM: −4.7%
NDR1
  % Inhibition at 10 μM: −4.8%
MNK1
  % Inhibition at 10 μM: −5.2%
DYRK1B
  % Inhibition at 10 μM: −6.1%
CK2α2/β
  % Inhibition at 10 μM: −7.0%
p70S6K
  % Inhibition at 10 μM: −7.8%
AKT1
  % Inhibition at 10 μM: −8.3%
EPHB1
  % Inhibition at 10 μM: −9.9%
FGFR3(K650E)
  % Inhibition at 10 μM: −15.5%
PKD2
  % Inhibition at 10 μM: −22.1%
MAPKAPK2
  % Inhibition at 10 μM: −22.4%

## CC(C)(C)Cc1[nH]nc2c1[C@](C)(c1ccccc1)C1=C(CC(C)(C)CC1=O)N2 [BRD3731]
FLT3; 10 μM
  % Inhibition 10 μM: 13.8%
HGK; 10 μM
  % Inhibition 10 μM: −3.8%
MST3; 10 μM
  % Inhibition 10 μM: 7.4%
COT_Cascade; 10 μM
  % Inhibition 10 μM: 10.5%
RAF1_Cascade; 10 μM
  % Inhibition 10 μM: −6.6%
EPHA6; 10 μM
  % Inhibition 10 μM: 9.6%
TRKB; 10 μM
  % Inhibition 10 μM: 11.0%
PKACα; 10 μM
  % Inhibition 10 μM: 17.1%
YES(T348I); 10 μM
  % Inhibition 10 μM: −2.3%
TRKA; 10 μM
  % Inhibition 10 μM: 12.0%
Erk2; 10 μM
  % Inhibition 10 μM: 0.9%
MAP3K2_Cascade; 10 μM
  % Inhibition 10 μM: −0.7%
PIM2; 10 μM
  % Inhibition 10 μM: 0.8%
PASK; 10 μM
  % Inhibition 10 μM: 10.7%
IKKα; 10 μM
  % Inhibition 10 μM: 1.8%
KIT; 10 μM
  % Inhibition 10 μM: −1.7%
MUSK; 10 μM
  % Inhibition 10 μM: −7.9%
PKCζ; 10 μM
  % Inhibition 10 μM: 5.0%
INSR; 10 μM
  % Inhibition 10 μM: −2.8%
CLK3; 10 μM
  % Inhibition 10 μM: 4.0%
IGF1R; 10 μM
  % Inhibition 10 μM: −1.5%
EPHA2; 10 μM
  % Inhibition 10 μM: 3.2%
FGFR3(K650M); 10 μM
  % Inhibition 10 μM: 0.8%
RET(S891A); 10 μM
  % Inhibition 10 μM: −0.6%
DYRK1A; 10 μM
  % Inhibition 10 μM: 3.3%
LTK; 10 μM
  % Inhibition 10 μM: −3.5%
WNK3; 10 μM
  % Inhibition 10 μM: 2.1%
RON; 10 μM
  % Inhibition 10 μM: 2.3%
SPHK2; 10 μM
  % Inhibition 10 μM: 15.2%
ACK; 10 μM
  % Inhibition 10 μM: −1.3%
AKT2; 10 μM
  % Inhibition 10 μM: −8.4%
NDR1; 10 μM
  % Inhibition 10 μM: −3.7%
MNK1; 10 μM
  % Inhibition 10 μM: −4.1%
DYRK1B; 10 μM
  % Inhibition 10 μM: 2.0%
CK2α2/β; 10 μM
  % Inhibition 10 μM: −2.3%
p70S6K; 10 μM
  % Inhibition 10 μM: 12.5%
AKT1; 10 μM
  % Inhibition 10 μM: −1.1%
EPHB1; 10 μM
  % Inhibition 10 μM: 2.7%
FGFR3(K650E); 10 μM
  % Inhibition 10 μM: 0.7%
PKD2; 10 μM
  % Inhibition 10 μM: 17.2%
MAPKAPK2; 10 μM
  % Inhibition 10 μM: 22.4%
